# Reference: patent US10501482B2, “Compounds for treating spinal muscular atrophy” (Hoffmann-La Roche Inc., priority 2013, dated 2019)
# Counter-ions that a name gives are not always drawn.
# Key:
# [1] = tested on: full length SMN2 minigene mRNA (FL SMN2mini) in HEK293H cells stably transfected with the SMN2-A minigene construct; assay: SMN2 minigene mRNA splicing RT-qPCR assay in cultured cells; assay type: cell-based; conditions: Homo sapiens, HEK293-H, 24 hours, 7-point concentration curve, concentration giving 1.5-fold FL SMN2mini mRNA vs vehicle, read-out: EC1.5x minigene (EC1.5x concentration for production of full length SMN2 minigene mRNA)
# Experimental: The reverse transcription-quantitative PCR-based (RT-qPCR) assay is used to quantify the level of the full length SMN2 minigene (referred to herein by the term “FL SMN2mini”) mRNA containing SMN2 exon 7 in a HEK293H cell line stably transfected with said minigene and treated with a test compound.
# The SMN2-A minigene construct was prepared as described in International Patent Application WO2009/151546A1 page 145 paragraph [00400] to page 147 paragraph [00412](incl. FIG. 1 and FIG. 3 therein).
# HEK293H cells stably transfected with the SMN2-A minigene construct (10,000 cells/well) are seeded in 200 μL of cell culture medium (DMEM plus 10% FBS, with 200 μg/mL hygromycin) in 96-well flat-bottom plates and the plate is immediately swirled to ensure proper dispersal of cells and the formation of an even monolayer of cells. Cells are allowed to attach for 6 hours. […] A solution of test compound (1 μL, 200× in DMSO) is added to each cell-containing well and the plate is incubated for 24 hours in a cell culture incubator (37° C., 5% CO2, 100% relative humidity). 2 replicates are prepared for each test compound concentration. The cells are then lysed in the Cells-To-Ct lysis buffer and the lysate is stored at −80° C.
# Full length SMN2-A minigene and GAPDH mRNA are quantified using the primers and probes referenced in Table 1. Primer SMN Forward A (SEQ ID NO.1) hybridizes to a nucleotide sequence in exon 7 (nucleotide 22 to nucleotide 40), primer SMN Reverse A (SEQ ID NO.2) hybridizes to a nucleotide sequence in the coding sequence of Firefly luciferase, SMN Probe A (SEQ ID NO.3) hybridizes to a nucleotide sequence in exon 7 (nucleotide 50 to nucleotide 54) and exon 8 (nucleotide 1 to nucleotide 21). The combination of these three oligonucleotides detects only SMN1 or SMN2 minigenes (RT-qPCR) and will not detect endogenous SMN1 or SMN2 genes.
# The SMN forward and reverse primers are used at final concentrations of 0.4 μM. The SMN probe is used at a final concentration of 0.15 μM. The GAPDH primers are used at final concentrations of 0.2 μM and the probe at 0.15 μM.
# The SMN2-minigene GAPDH mix (15 μL total volume) is prepared by combining 7.5 μL of 2×RT-PCR buffer, 0.4 μL of 25×RT-PCR enzyme mix, 0.75 μL of 20×GAPDH primer-probe mix, 4.0075 μL of water, 2 μL of 10-fold diluted cell lysate, 0.06 μL of 100 μM SMN forward primer, 0.06 μL of 100 μM SMN reverse primer, and 0.225 μL of 100 μM SMN probe.
# PCR is carried out at the following temperatures for the indicated time: Step 1: 48° C. (15 min); Step 2: 95° C. (10 min); Step 3: 95° C. (15 sec); Step 4: 60° C. (1 min); then repeat Steps 3 and 4 for a total of 40 cycles.
# Each reaction mixture contains both SMN2-A minigene and GAPDH primers/probe sets (multiplex design), allowing simultaneous measurement of the levels of two transcripts.
# The increase in the abundance of the FL SMN2mini mRNA relative to that in cells treated with vehicle control is determined from real-time PCR data using a modified ΔΔCt method (as described in Livak and Schmittgen, Methods, 2001, 25:402-8). The amplification efficiency E is calculated from the slope of the amplification curve for FL SMN2mini and GAPDH individually. The abundance of FL SMN2mini and GAPDH mRNA are then calculated as (1+E)^−Ct, where Ct is the threshold value for each amplicon. The abundance of FL SMN2mini mRNA is normalized to GAPDH mRNA abundance. The normalized FL SMN2mini mRNA abundance from test compound-treated samples is then divided by normalized FL SMN2mini mRNA abundance from vehicle-treated cells to determine the level of FL SMN2mini mRNA relative to vehicle control.
# Table 2 provides EC1.5x concentrations for production of full length SMN2 minigene mRNA that was obtained from the 7-point concentration data generated according to the above procedure for particular compounds of the present invention.
# SMN protein = SMN protein assay (HTRF) in cultured SMA patient fibroblast cells; assay type: cell-based; conditions: SMA Type 1 human fibroblasts GM03813, 48 hours; for EC1.5x SMN protein (EC1.5x concentration for SMN protein expression): 7-point concentration curve, concentration giving 1.5 times SMN protein vs vehicle; for max. fold increase (maximum fold increase of SMN protein): 7-point concentration data, fold vs vehicle control
# Experimental: The SMN HTRF (homogeneous time resolved fluorescence) assay is used to quantify the level of SMN protein in SMA patient fibroblast cells treated with test compounds.
# Cells are thawed and cultured in DMEM-10% FBS for 72 hours. Cells are trypsinized, counted and re-suspended to a concentration of 25,000 cells/mL in DMEM-10% FBS. The cell suspensions are plated at 5,000 cells per well in a 96 well microtiter plate and incubated for 3 to 5 hours. […] 1 μL of test compound solution is transferred to cell-containing wells and cells are incubated for 48 hours in a cell culture incubator (37° C., 5% CO2, 100% relative humidity). Triplicate samples are set up for each test compound concentration. After 48 hours, the supernatant is removed from the wells and 25 μL of the RIPA lysis buffer, containing protease inhibitors, is added to the wells and incubated with shaking at room temperature for 1 hour. 25 μL of the diluent is added and then 35 μL of the resulting lysate is transferred to a 384-well plate, where each well contains 5 μL of the antibody solution (1:100 dilution of anti-SMN d2 and anti-SMN kryptate in SMN reconstitution buffer). The plate is centrifuged for 1 minute to bring the solution to the bottom of the wells, then incubated overnight at room temperature. Fluorescence for each well of the plate at 665 nm and 620 nm is measured on an EnVision multilabel plate reader (Perkin-Elmer).
# The normalized fluorescence signal is calculated for each sample, Blank and vehicle control well by dividing the signal at 665 nm by the signal at 620 nm. Normalizing the signal accounts for possible fluorescence quenching due to the matrix effect of the lysate. The ΔF value (a measurement of SMN protein abundance as a percent value) for each sample well is calculated by subtracting the normalized average fluorescence for the Blank control wells from the normalized fluorescence for each sample well, then dividing this difference by the normalized average fluorescence for the Blank control wells and multiplying the resulting value by 100. The ΔF value for each sample well represents the SMN protein abundance from test compound-treated samples. The ΔF value for each sample well is divided by the ΔF value for the vehicle control wells to calculate the fold increase in SMN protein abundance relative to the vehicle control. Table 3 provides EC1.5x concentrations for SMN protein expression that was obtained from the 7-point concentration data generated according to the above procedure for particular compounds of the present invention.
# Table 4 provides the maximum fold increase of SMN protein that was obtained from the 7-point concentration data generated according to the above procedure for particular compounds of the present invention
SMILES,EC (1.5-fold) [1] [µM],EC1.5x SMN protein (EC1.5x concentration for SMN protein expression) (SMN protein) [µM],max. fold increase (maximum fold increase of SMN protein) (SMN protein)
"Cc1cn2cc(NC(=O)c3ccc(N4CCNC(C)C4)cc3)nc2c(C)n1 (racemic) [Example 2, rac-N-(6,8-dimethyl-imidazo[1,2-a]-pyrazin-2-yl)-4-(3-methylpiperazin-1-yl)benzamide]",0.14,0.2984,1.8878
"Cc1cn2cc(NC(=O)c3ccc(N4CCNC(C)C4)cc3F)nc2c(C)n1 (racemic) [Example 5, rac-N-(6,8-dimethyl-imidazo[1,2-a]-pyrazin-2-yl)-2-fluoro-4-(3-methyl-piperazin-1-yl)-benzamide]",0.0612,0.107,1.7757
"Cc1cn2cc(NC(=O)c3ccc(N4CCNC(C)C4)nc3)nc2c(C)n1 (racemic) [Example 7, rac-N-(6,8-dimethyl-imidazo[1,2-a]-pyrazin-2-yl)-6-(3-methyl-piperazin-1-yl)nicotinamide]",0.142,0.2834,1.7936
"Cc1cn2cc(NC(=O)c3ccc(N4CCNC(C)C4)cn3)nc2c(C)n1 (racemic) [Example 10, rac-N-(6,8-dimethyl-imidazo[1,2-a]-pyrazin-2-yl)-5-(3-methyl-piperazin-1-yl)picolinamide]",0.665,0.329,1.735
"Cc1cn2cc(NC(=O)c3ccc(N4CCNC(C)C4)nc3)ccc2n1 (racemic) [Example 12, rac-N-(2-methyl-imidazo[1,2-a]-pyridin-6-yl)-6-(3-methyl-piperazin-1-yl)nicotinamide]",0.312,0.7037,1.6512
"Cc1cn2cc(NC(=O)c3ccc(N4CCNC(C)C4)cn3)ccc2n1 (racemic) [Example 17, rac-N-(2-methyl-imidazo[1,2-a]-pyridin-6-yl)-5-(3-methyl-piperazin-1-yl)-picolinamide]",0.233,0.5022,1.6966
"Cc1cn2cc(NC(=O)c3ccc(N4CCNC(C)C4)cc3F)ccc2n1 (racemic) [Example 18, rac-2-fluoro-N-(2 methylimidazo-[1,2-a]pyridin-6-yl)-4(3-methyl-piperazin-1-yl)-benzamide]",0.0523,0.1346,1.7677
"Cc1cn2cc(NC(=O)c3ccc(N4CCNC(C)C4)nc3)cc(C(F)(F)F)c2n1 (racemic) [Example 20, rac-N-(2-methyl-8-(trifluoromethyl)-imidazo[1,2-a]-pyridin-6-yl)-6-(3-methyl-piperazin-1-yl)-nicotinamide]",0.489,0.8065,1.7789
"Cc1nc2c(F)cc(NC(=O)c3ccc(N4CCNC(C)C4)nc3)cc2o1 (racemic) [Example 27, rac-N-(4-Fluoro-2-methylbenzo-oxazol-6-yl)-6-(3-methylpiperazin-1-yl)nicotinamide]",0.0989,0.3964,1.6617
"Cc1nc2c(F)cc(NC(=O)c3ccc(N4CCNC(C)C4)cc3)cc2o1 (racemic) [Example 29, rac-N-(4-fluoro-2-methylbenzo[d]-oxazol-6-yl)-4-(3-methylpiperazin-1-yl)benzamide]",0.267,0.4618,1.632
"Cc1cn2cc(NC(=O)c3ccc(N4CCNC(C)C4)cc3F)cc(C)c2n1 (racemic) [Example 37, rac-N-(2,8-dimethyl-imidazo[1,2-a]-pyridin-6-yl)-2-fluoro-4-(3-methylpiperazin-1-yl)benamide dihydrochloride]",0.028,0.1196,1.7758
"Cc1nc2c(F)cc(NC(=O)c3ccc(N4CCN5CCC[C@H]5C4)cc3F)cc2o1 [Example 33, (S)-2-Fluoro-N-(4-fluoro-2-methyl-benzooxazol-6-yl)-4-(S)-hexahydro-pyrrolo[1,2-a]-pyrazin-2-yl-benzamide]",–,0.5703,1.7541
"Cc1cn2cc(NC(=O)c3ccc(N4CCNCC4)nc3)cc(F)c2n1 [Example 41, N-(8-tluoro-2-methylimidazo-[1,2-a]pyridin-6-yl)-6-(piperazin-1-yl)nicotinamide dihydrochloride]",–,0.0508,1.7973
"CCOc1cc(N2CCNCC2)ncc1C(=O)Nc1cc(F)c2nc(C)cn2c1 [Example 70, 4-ethoxy-N-(8-fluoro-2-methylimidazo[1,2-a]pyridin-6-yl)-6-(piperazin-1-yl)nicotinamide]",–,0.0187,1.933
